From article PMC3701073, “The Mode of Inhibitor Binding to Peptidyl-tRNA Hydrolase: Binding Studies and Structure Determination of Unbound and Bound Peptidyl-tRNA Hydrolase from Acinetobacter baumannii” (PLoS ONE, 2013)

Target: T1, peptidyl-tRNA hydrolase from Acinetobacter baumannii (AbPth) (Acinetobacter baumannii, UniProt D0C9L6)
T1 construct: gene pth; full length, 193 residues (Met1-Ala193), N-terminal 6xHis tag (pET-28a, NdeI/XhoI; cleavage not mentioned), E. coli BL21(DE3)
T1 sequence (D0C9L6 1-193): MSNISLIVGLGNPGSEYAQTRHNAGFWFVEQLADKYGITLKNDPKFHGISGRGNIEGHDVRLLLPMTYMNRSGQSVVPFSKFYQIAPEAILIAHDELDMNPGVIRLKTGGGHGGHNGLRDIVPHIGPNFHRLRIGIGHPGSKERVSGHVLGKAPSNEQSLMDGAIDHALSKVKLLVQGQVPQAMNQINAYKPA
Assay: intrinsic fluorescence quenching (Scatchard)
Type: binding

| Structure (SMILES) | Kd |
| --- | --- |
| O=c1ccn([C@@H]2O[C@H](CO)[C@@H](O)[C@H]2O)c(=O)[nH]1 [uridine] | ~2.11 nM |
| Nc1ccn([C@@H]2O[C@H](CO)[C@@H](O)[C@H]2O)c(=O)n1 [cytidine] | 4.79 nM |
